Data on seven compounds can be found in ChEMBL document CHEMBL5036329, “4-Methyl-1,2,3-Triazoles as N-Acetyl-Lysine Mimics Afford Potent BET Bromodomain Inhibitors with Improved Selectivity” (J Med Chem, 2021).

A short description of series [1]: Microsomal stability in human liver microsomes assessed as fraction unbound measured upto 60 mins in presence of NADPH regenerating system by LC-MS analysis. Type of series: ADME, Microsome. To be noted: 1 h. For orientation: Liver microsomes are a subcellular fraction often used to study metabolism.
The target of series [2] is T1, Bromodomain testis-specific protein (Homo sapiens, UniProt Q58F21). As to the kind of experiment: Binding affinity to human partial length BRDT BD1 expressed in bacterial expression system assessed as dissociation constant by BROMOscan assay.
Series [3] deals with T2, Bromodomain-containing protein 3 (Homo sapiens, UniProt Q15059). Nature of the series: Binding affinity to human partial length BRD3 BD1 expressed in bacterial expression system assessed as dissociation constant by BROMOscan assay.
Series [4] deals with T1, Bromodomain testis-specific protein. As to the kind of experiment: Binding affinity to human partial length BRDT BD2 expressed in bacterial expression system assessed as dissociation constant by BROMOscan assay.
The target of series [5] is T2, Bromodomain-containing protein 3. Nature of the series: Binding affinity to human partial length BRD3 BD2 expressed in bacterial expression system assessed as dissociation constant by BROMOscan assay.

T2 sequence (Q15059 whole entry): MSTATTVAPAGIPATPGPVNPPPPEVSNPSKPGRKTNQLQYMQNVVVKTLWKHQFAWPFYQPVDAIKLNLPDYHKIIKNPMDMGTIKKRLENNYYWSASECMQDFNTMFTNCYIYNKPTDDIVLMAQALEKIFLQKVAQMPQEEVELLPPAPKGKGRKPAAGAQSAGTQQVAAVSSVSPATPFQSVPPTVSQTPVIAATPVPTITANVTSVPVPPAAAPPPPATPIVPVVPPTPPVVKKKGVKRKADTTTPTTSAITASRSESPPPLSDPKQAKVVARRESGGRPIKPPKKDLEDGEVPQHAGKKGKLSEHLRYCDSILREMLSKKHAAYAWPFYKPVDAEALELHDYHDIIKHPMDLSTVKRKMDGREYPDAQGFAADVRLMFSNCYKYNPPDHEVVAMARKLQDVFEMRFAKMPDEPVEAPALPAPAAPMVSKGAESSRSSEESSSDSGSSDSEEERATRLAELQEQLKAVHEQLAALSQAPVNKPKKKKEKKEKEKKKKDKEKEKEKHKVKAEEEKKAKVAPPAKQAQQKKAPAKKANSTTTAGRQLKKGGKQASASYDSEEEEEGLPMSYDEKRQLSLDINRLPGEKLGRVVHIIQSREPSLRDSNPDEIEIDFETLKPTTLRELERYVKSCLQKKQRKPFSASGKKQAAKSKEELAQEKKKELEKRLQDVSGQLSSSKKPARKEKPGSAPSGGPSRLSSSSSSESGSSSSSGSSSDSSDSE

With `Cc1cc(C)cc(Oc2cccc(-c3c(C)nnn3C3CCNCC3)n2)c1`, the Fu in series [1] is 0.13.

Turning to `Cc1cc(C)cc(Nc2nccc(-c3c(-c4ccc(C(F)(F)F)cc4)ncn3C3CCN(CCN)CC3)n2)c1`, in series [1], the Fu is 0.08.

Consider `Cc1nnn(C2CCN(CCN(C)C)CC2)c1-c1cccc(Oc2cc(Br)ccc2Br)n1`, for which the Fu in series [1] is 0.13.

The Kd is the equilibrium constant for the complex coming apart. For `Cc1cc(C)cc(Oc2cccc(-c3c(C)nnn3C3CCN(CCN(C)C)CC3)n2)c1`, the equilibrium dissociation constant (Kd) in series [2] came to 15 nM; in series [3] it was 20 nM; in series [4] it was 250 nM; in series [5], 310 nM. The Fu in series [1] is 0.14.

In the case of `Cc1nnn(C2CCNCC2)c1-c1cccc(Oc2cc(C3CC3)cc(C3CC3)c2)n1`, in series [1], the Fu is recorded as 0.12.

Consider `Cc1nnn(C2CCNCC2)c1-c1cccc(Oc2cc(Cl)cc(Cl)c2)n1`, for which, in series [1], the Fu stood at 0.11.

Take `Cc1nnn(C2CCNCC2)c1-c1cccc(Oc2cc(Br)cc(Br)c2)n1`: in series [1], the Fu is given as 0.09.
